Our source for the inhibition, Activity and ILS values is ChEMBL document CHEMBL5518163, “Brazilin-7-acetate, a novel potential drug of Parkinson's disease, hinders the formation of α-synuclein fibril, mitigates cytotoxicity, and decreases oxidative stress” (Eur J Med Chem, 2024).

Active and inactive are the calls of the source. The calls are words filed in the database; no cut-off is given here.

Test [1] concerns the target Alpha-synuclein (Homo sapiens) (UniProt P37840). The test is described as follows: Inhibition of recombinant alpha-synuclein (unknown origin) fibrillation at 1 to 20 uM measured after 30 mins by ThT fluorescence based spectrofluorometer analysis relative to control. The settings on record: dose 1-20 µM.
Test [2] relates to PC-12. The test is described as follows: Cytotoxicity against rat PC12 cells assessed as survival rate at 25 uM incubated for 10 days by MTT assay relative to control. Conditions: time 10 day. The test is classed as functional.
The subject of test [3] is PC-12. The test is described as follows: Cytotoxicity against rat PC12 cells assessed as survival rate at 50 uM incubated for 10 days by MTT assay relative to control. Type of test: functional. The settings on record: time 10 day. For orientation: Formazan colour is commonly taken as a measure of viable cells.
Test [4] concerns PC-12. The test is described as follows: Cytotoxicity against rat PC12 cells assessed as survival rate at 100 uM incubated for 10 days by MTT assay relative to control. The test is classed as functional. The settings on record: time 10 day.
The subject of test [5] is PC-12. Nature of the test: Cytotoxicity against rat PC12 cells assessed as survival rate at 50 to 100 uM incubated for 10 days by MTT assay relative to control. Type of test: functional. Conditions: dose 50-100 µM, time 10 day.
For test [6], the system named is Caenorhabditis elegans. The test is described as follows: Antioxidant activity against transgenic Caenorhabditis elegans NL5901 expressing YFP-tagged alpha-synuclein assessed as decrease in MDA content relative to control. Type of test: functional. Set-up: scale not given: the % may be the effect or the level left.
The test system of test [7] is Caenorhabditis elegans. The test is described as follows: Antioxidant activity against transgenic Caenorhabditis elegans NL5901 expressing YFP-tagged alpha-synuclein assessed as increase in lipid content relative to control. The test is classed as functional.
Test [8] has as its system PC-12. Nature of the test: Protection against alpha-synuclein induced rat PC12 cells death assessed as survival rate at alpha-synuclein to compound molar ratio 1:0.5 pre-incubated with alpha-synuclein for 10 days followed by cell addition and measured after 48 hrs by MTT assay (reference value: 58.07%). Type of test: functional.
The subject of test [9] is PC-12. The test is described as follows: Protection against alpha-synuclein induced rat PC12 cells death assessed as survival rate at alpha-synuclein to compound molar ratio 1:1 pre-incubated with alpha-synuclein for 10 days followed by cell addition and measured after 48 hrs by MTT assay (reference value: 58.07%). The test is classed as functional.
Test [10] has as its system PC-12. The test is described as follows: Protection against alpha-synuclein induced rat PC12 cells death assessed as survival rate at alpha-synuclein to compound molar ratio 1:2 pre-incubated with alpha-synuclein for 10 days followed by cell addition and measured after 48 hrs by MTT assay (reference value: 58.07%). Type of test: functional.
The subject of test [11] is Caenorhabditis elegans. Nature of the test: In vivo inhibition of alpha-synuclein aggregation in transgenic Caenorhabditis elegans NL5901 expressing YFP-tagged alpha-synuclein at 100 uM under L4 stage to adult stage on day 5 and 10 by fluorescence based confocal microscope analysis. The test is classed as functional. The settings on record: time 5.0 day.
In test [12] the test system is Caenorhabditis elegans. The test is described as follows: In vivo inhibition of alpha-synuclein aggregation in transgenic Caenorhabditis elegans NL5901 expressing YFP-tagged alpha-synuclein assessed as reduction in number of alpha-synuclein aggregates plaques at 100 uM incubated for 5 days by fluorescence based confocal microscope analysis. The test is classed as functional. Conditions: time 5.0 day.

A short description of test [13]: In vivo inhibition of alpha-synuclein aggregation in transgenic Caenorhabditis elegans NL5901 expressing YFP-tagged alpha-synuclein assessed as quantity of plaques at 100 uM on day 5 by fluorescence based confocal microscope analysis (reference value: 24.7). Type of test: functional. The settings on record: time 5 day.
Test [14] is described as follows: In vivo inhibition of alpha-synuclein aggregation in transgenic Caenorhabditis elegans NL5901 expressing YFP-tagged alpha-synuclein assessed as quantity of plaques at 100 uM on day 10 by fluorescence based confocal microscope analysis (reference value: 31.5). The test is classed as functional. Conditions: time 5 day.
Test [15] deals with Caenorhabditis elegans. Nature of the test: Improvement in movement disorder in transgenic Caenorhabditis elegans NL5901 expressing YFP-tagged alpha-synuclein assessed as increase in number of bends at 100 uM measured on day 5 (reference value: 29.5). Type of test: functional. The settings on record: time 5 day.
Test [16] has as its system Caenorhabditis elegans. Nature of the test: Improvement in movement disorder in transgenic Caenorhabditis elegans NL5901 expressing YFP-tagged alpha-synuclein assessed as increase in number of bends at 100 uM measured on day 10 (reference value: 11.1). Type of test: functional. The settings on record: time 5 day.
Test [17] deals with Caenorhabditis elegans. Nature of the test: Improvement in life span of transgenic Caenorhabditis elegans NL5901 expressing YFP-tagged alpha-synuclein assessed as decrease in death rate at 100 uM incubated for 5 days. The settings on record: time 5.0 day. Type of test: functional, organism-based.
For test [18], the system named is Caenorhabditis elegans. The test is described as follows: Improvement in life span of transgenic Caenorhabditis elegans NL5901 expressing YFP-tagged alpha-synuclein assessed as increase in lifespan at 100 uM (reference value: 16 day). Type of test: functional. Conditions: time 5 day.
The test system of test [19] is Caenorhabditis elegans. The test is described as follows: Improvement in life span of transgenic Caenorhabditis elegans NL5901 expressing YFP-tagged alpha-synuclein assessed as increase in average lifespan at 100 uM (reference value: 8.52 day). The test is classed as functional. The settings on record: time 5 day.
In test [20] the test system is Caenorhabditis elegans. Nature of the test: Inhibition of oxidative stress in transgenic Caenorhabditis elegans NL5901 expressing YFP-tagged alpha-synuclein assessed as reduction in ROS level by measuring fluorescence intensity at 100 uM incubated for 5 days by DHE staining based confocal laser scanning microscope analysis. Type of test: functional, organism-based. The settings on record: time 5.0 day.

Test [21] concerns Caenorhabditis elegans. The test is described as follows: Inhibition of oxidative stress in Caenorhabditis elegans NL5901 expressing YFP-tagged alpha-synuclein assessed as decrease in ROS level by measuring average fluorescence intensity at 100 uM incubated for 5 days by DHE staining based confocal laser scanning microscope analysis (reference value: 1600%). On the set-up: scale not given: the % may be the effect or the level left. The settings on record: time 5 day. Type of test: functional.

For test [22], the system named is Caenorhabditis elegans. The test is described as follows: Antioxidant activity in transgenic Caenorhabditis elegans NL5901 expressing YFP-tagged alpha-synuclein assessed as increase in SOD activity at 100 uM incubated for 5 days (reference value: 33.32 %). Type of test: functional. The settings on record: time 5 day.
Test [23] deals with Caenorhabditis elegans. Nature of the test: Antioxidant activity against transgenic Caenorhabditis elegans NL5901 expressing YFP-tagged alpha-synuclein assessed as increase in GSH-PX activity at 100 uM incubated for 5 days (reference value: 46.36 %). Type of test: functional. Conditions: time 5 day.
The subject of test [24] is Caenorhabditis elegans. The test is described as follows: Antioxidant activity against transgenic Caenorhabditis elegans NL5901 expressing YFP-tagged alpha-synuclein assessed as decrease in MDA content at 100 uM incubated for 5 days (reference value: 288.94 %). The test is classed as functional. On the set-up: scale not given: the % may be the effect or the level left. Conditions: time 5 day.

In test [25] the test system is Caenorhabditis elegans. The test is described as follows: Antioxidant activity against transgenic Caenorhabditis elegans NL5901 expressing YFP-tagged alpha-synuclein assessed as increase in lipid content by measuring fluorescence intensity at 100 uM incubated for 5 days by Nile Red staining based confocal laser scanning microscope analysis (reference value: 41.32 %). Conditions: time 5 day. The test is classed as functional.

For the compound `COc1ccc(-c2coc3cc(O)ccc3c2=O)cc1O`, the inhibition in test [1] was found to be 82.3%.

On to `Oc1ccc2c(c1)OC[C@]1(O)Cc3cc(O)c(O)cc3[C@H]21` [BRAZILIN], for which the Activity is given as 82.15% in the test with PC-12 [2], 66.74% in the test with PC-12 [3], 60.46% in the test on PC-12 [4] and about 20% in the test with PC-12 [5].

With `O=C(/C=C/c1ccc(O)c(O)c1)O[C@@H]1C[C@](O)(C(=O)O)C[C@@H](O)[C@H]1O` [CHLOROGENIC ACID], the Activity is listed as about 50% in the test with Caenorhabditis elegans [6] and about 5% in the test on Caenorhabditis elegans [7].

With `CC(=O)Oc1ccc2c(c1)OC[C@]1(O)Cc3cc(O)c(O)cc3[C@H]21`, the Activity amounted to 82.15% with PC-12 [2]; 66.74% in the test with PC-12 [3]; 60.46% in the test on PC-12 [4]; 72.26% in the test with PC-12 [8]; 85.21% in the test on PC-12 [9]; 93.51% in the test on PC-12 [10]. Besides, the Activity came to 7.2 in test [13]; 16.2 in test [14]; 8.4 with Caenorhabditis elegans [15]; 7.6 in the test on Caenorhabditis elegans [16]; 723.6% in the test with Caenorhabditis elegans [21]; 60% in the test with Caenorhabditis elegans [22]. Also, the values for the Activity in the test on Caenorhabditis elegans [23], with Caenorhabditis elegans [24] and in the test with Caenorhabditis elegans [25] were 81.81%, 133% and 57.69%, respectively. The inhibition result in the test on Caenorhabditis elegans [11] and with Caenorhabditis elegans [12] was “Active” in each case. Moreover, the outcome in the test with Caenorhabditis elegans [17] and in the test with Caenorhabditis elegans [20] was Active. Further, the values for the ILS in the test on Caenorhabditis elegans [18] and in the test on Caenorhabditis elegans [19] were 19 days and 10.35 days, respectively.

The inhibition is the percentage by which the read-out fell short of the control.
